Reference: US20170196842A1, “METHODS OF TREATMENT USING A 1,2,4-OXADIAZOLE BENZOIC ACID” (PTC Therapeutics, Inc., priority 2014, published 2017)
Entries after “also recorded” stand apart in the source; their conditions may differ. Where two headings read alike, the source gives them in different places.

What was measured:
[1] = test system: Mouse embryonic fibroblasts (MEFs); assay: Cell toxicity/stress (visual inspection) and total protein concentration in MEFs; assay type: cell-based; details: 24 hours
Protocol: The greatest reduction of GAG levels occurred at 10 μg/mL with decreased reduction of GAG levels at concentrations above 20 μg/mL. […] Cell viability was determined by quantifying the total protein concentration in each lysate.
The effect of Compound 1 on iduronidase activity as a result of readthrough of the premature stop codon present in the Idua gene was determined in an in vitro GAG accumulation assay. This assay utilized primary fibroblasts isolated from 13 day-old +/+ and −/− Idua-W392X mouse embryos. Mouse embryonic fibroblasts (MEFs) were isolated from 13 day-old wild type and homozygous Idua-W392X mouse embryo littermates. The cells were grown in Dulbecco's Modified Eagle Media (DMEM) containing 10% bovine calf serum (BCS)+1% non-essential amino acids+1% penicillin/streptomycin at 37° C. and 5% CO2. The MEFs were isolated and grown on collagen-coated plates until ˜50% confluent. MEFs from Idua-W392X mice were treated with increasing concentrations of Compound 1 dissolved in DMSO to a final concentration of 0.2%. Cells were incubated with Compound 1 for 24 hours. Controls included untreated wild type and untreated Idua-W392X MEFs. […]
The total protein concentration in each lysate was determined using the Bio-Rad protein assay with a standard curve generated using bovine serum albumin.

[2] = Pharmacokinetics of Compound 1 delivered via solid chow (plasma, LC-MS/MS); assay type: in vivo, C57BL/6J mice; details: for Tmax / Tmin / Cmin / AUC / Cmax: C57BL/6J mice; for AUC / Cmax: C57BL/6J, mouse, plasma, po; for AUC: read-out: AUC9-10
Protocol: The pharmacokinetics of Compound 1 at three doses (0.1%, 0.3% or 1% (w/w)) when delivered via solid chow was determined in satellite wild type C57BL/6J mice. The first day Compound 1 was provided was defined as Day 0. On Day 3 and on Day 13 blood was obtained from mice at specified time points and the plasma concentration of Compound 1 was measured using liquid chromatography-tandem mass spectrometry.
AUC9-10 refers to area under the curve plotting plasma concentration over time (9 am to 10 pm) (hr·μg/mL); Cmax refers to maximal plasma concentration (μg/mL); Cmin refers to minimal plasma concentration (μg/mL); Tmax refers to the time at which the maximal plasma concentration was measured; and Tmin refers to the time at which the minimal plasma concentration was measured.

[3] = 0.1% (w/w) in chow, Day 3, clock time
[4] = 0.1% (w/w) in chow, Day 13, clock time
[5] = 0.3% (w/w) in chow, Day 3, clock time
[6] = 0.3% (w/w) in chow, Day 13, clock time
[7] = 1.0% (w/w) in chow, Day 3, clock time
[8] = 1.0% (w/w) in chow, Day 13, clock time

In the case of O=C(O)c1cccc(-c2noc(-c3ccccc3F)n2)c1 [Compound 1, 3-[5-(2-fluoro-phenyl)-[1,2,4]oxadiazol-3-yl]-benzoic acid], the “Changes in total protein concentration (cell viability)” value ([1]; 0 to 40 μg/mL) is reported as “No notable changes”, the “Signs of cellular toxicity or stress (cells rounding up or floating, changes in cell density)” value ([1]; up to the highest concentration tested (40 μg/mL)) is reported as “No signs of cellular toxicity or stress; also recorded: No signs of cell toxicity or stress” and the Tmax [2, 3] is reported as 10 pm. The Tmin [2, 3] was 1 pm, the Cmin ([2]; 0.1% (w/w) in chow, Day 3, plasma) was 760 ng/mL and the Tmax [2, 4] was 10 pm. It also gave a Tmin [2, 4] of 1 pm, a Cmin ([2]; 0.1% (w/w) in chow, Day 13, plasma) of 1000 ng/mL and a Tmax [2, 5] of 10 pm. The Tmin [2, 5] was 1 pm, the Cmin ([2]; 0.3% (w/w) in chow, Day 3, plasma) was 3700 ng/mL and the Tmax [2, 6] was 10 pm. It also gave a Tmin [2, 6] of 9 am, a Cmin ([2]; 0.3% (w/w) in chow, Day 13, plasma) of 4600 ng/mL and a Tmax [2, 7] of 4 pm. The Tmin [2, 7] was 1 pm, the Cmin ([2]; 1.0% (w/w) in chow, Day 3, plasma) was 21000 ng/mL and the Tmax [2, 8] was 4 pm. It also gave a Tmin [2, 8] of 9 am, a Cmin ([2]; 1.0% (w/w) in chow, Day 13, plasma) of 19000 ng/mL and an AUC ([2]; 0.1 % (w/w) in chow, 0.1% (w/w) in chow, Day 3, 9 am to 10 pm) of 35000 ng·h/mL. The Cmax ([2]; 0.1 % (w/w) in chow, 0.1% (w/w) in chow, Day 3, plasma) was 5200 ng/mL, the AUC ([2]; 0.1 % (w/w) in chow, 0.1% (w/w) in chow, Day 13, 9 am to 10 pm) was 28000 ng·h/mL and the Cmax ([2]; 0.1 % (w/w) in chow, 0.1% (w/w) in chow, Day 13, plasma) was 3600 ng/mL. The AUC ([2]; 0.3 % (w/w) in chow, 0.3% (w/w) in chow, Day 3, 9 am to 10 pm) was 109000 ng·h/mL, the Cmax ([2]; 0.3 % (w/w) in chow, 0.3% (w/w) in chow, Day 3, plasma) was 19000 ng/mL and the AUC ([2]; 0.3 % (w/w) in chow, 0.3% (w/w) in chow, Day 13, 9 am to 10 pm) was 89000 ng·h/mL. For the same compound, the Cmax ([2]; 0.3 % (w/w) in chow, 0.3% (w/w) in chow, Day 13, plasma) was 13000 ng/mL, the AUC ([2]; 1 % (w/w) in chow, 1.0% (w/w) in chow, Day 3, 9 am to 10 pm) was 420000 ng·h/mL and the Cmax ([2]; 1 % (w/w) in chow, 1.0% (w/w) in chow, Day 3, plasma) was 41000 ng/mL. The AUC ([2]; 1 % (w/w) in chow, 1.0% (w/w) in chow, Day 13, 9 am to 10 pm) was 594000 ng·h/mL, the Cmax ([2]; 1 % (w/w) in chow, 1.0% (w/w) in chow, Day 13, plasma) was 58000 ng/mL and the “Plasma concentrations (range over time points)” value ([2]; mice, 1.0% (w/w) in chow) was 19000 to 58000 ng/mL.
